Tested on: HEK 293 cells
Assay: MTT cell viability assay
Assay type: cell-based
Details: for % of cell proliferation: overnight, control cells 100%, mean ± SD of 3 readings; for cellular toxicity in MTT assay (in words): 10 and 50 µM
Procedure: Finally, to assess the prospective of the identified compounds for further development into ChAT ligands, we assessed the compounds active against ChAT, AChE and BuChE, for their cellular toxicity on human embryonic kidney (HEK 293) cells using the cell viability 3-(4,5-dimethylthiazol-2-yl)-2,5-diphenyltetrazolium bromide (MTT) assay. All compounds were evaluated at 10 and 50 µM concentrations. The cell viability data is given in Table 4 (also represented as a bar chart in Fig. 9).
The in vitro cellular toxicity of the active compounds was evaluated using MTT assay. Briefly, Human embryonic kidney epithelial (HEK-293) cells cultured at 37 °C in a humidified environment with 5% CO2 in Dulbecco’s Modified Eagle’s medium (DMEM) in 96 well plate to obtain 70–80% confluency. Further, the cells were incubated overnight at 37 °C with 10 µM and 50 µM compounds in triplicate. Cells treated with 1% DMSO were used as controls. At the end of the treatment (12 h), 10 μL of 12 mM MTT dissolved in Phosphate buffer saline pH 7.4, was added to each well and incubated for an additional 2 h at 37 °C. The media was then removed from the plate and 100 µL of DMSO was added to dissolve the violet formazan crystals. Finally, the absorbance was measured at 540 nm with a reference wavelength of 630 nm on Tecan spectrophotometer with shaking before the reading. The percentage viability was calculated taking 1% DMSO control as 100 percent and presented as mean ± SD.

SMILES	% of cell proliferation (10 µM) [%]	% of cell proliferation (50 µM) [%]	cellular toxicity in MTT assay (in words)
CC(C)NC(=O)C1CCN(C(=O)c2csc(Nc3cccc4ccccc34)n2)CC1 [Compound B4]	106.4 ± 5.8	74.2 ± 3.9	lower cellular toxicity
CC(C)c1ccc(C(=O)CSc2n[nH]c(-c3ccco3)n2)cc1 [Compound E1]	101.9 ± 0.6	75.4 ± 4.9	lower cellular toxicity

— article PMC5701137, “Discovery of novel choline acetyltransferase inhibitors using structure-based virtual screening” (Scientific Reports, 2017)
